The test system of one test is Escherichia coli 591. Briefly: MIC, micro broth dilution in Muller Hinton broth (CLSI), Table 1B. The test is classed as cell-based. The settings on record: read-out: Minimum Inhibitory Concentration. The procedure: (§1) Besifloxacin HCL was tested against ampicillin and cefotaxime (3rd generation cephalosporin) susceptible and resistant gram-negative bacterial strains involved in GNF (gram negative folliculitis) by broth dilution method as per the Clinical & Laboratory Standards Institutes (CLSI) guidelines. MIC assay was performed in 96 well plates by micro broth dilution method, in 96 well plates, all the wells were added with 100 μl of sterilized Muller Hinton broth No: 2 cation broth (HiMedia, India). The initial stock of test compounds (1 mg/ml) were prepared in dimethyl sulfoxide (DMSO) and further dilutions were made in culture broth to get the desirable concentration. Then 100 μl of broth containing test compounds were initially added to the first column's wells and then serial dilution was performed up to well of 10th column. Wells of 11th and 12th column served as a positive and negative control respectively. Finally, 100 μl of inoculum (0.5 McFarland equal bacterial suspension was 100 times diluted in culture broth) was added to all the wells. Plates were incubated at 37° C. for 18-24 hrs. After incubation, MIC of each test compound was determined by observing the lowest concentration of test compound that has no visual growth compared to growth control. Minimum inhibitory concentration of besifloxacin, ampicillin and cefotaxime against gram negative bacterial strains were shown in Table 1.

The subject of a further test is Enterobacter sp. 2. The description is as above. In kind it is cell-based. The note with it: read-out: Minimum Inhibitory Concentration. The procedure:
as §1

A further test deals with Enterobacter sp. 532. Described as above. The test is classed as cell-based. The note with it: read-out: Minimum Inhibitory Concentration. The procedure: as §1
The test system of the next test is Klebsiella sp. 512. The description is as above. In kind it is cell-based. The note with it: read-out: Minimum Inhibitory Concentration. The procedure:
as §1

The test system of a further test is Enterobacter sp. 1. The test is described as above. The note with it: read-out: Minimum Inhibitory Concentration. In kind it is cell-based. The procedure:
as §1

The subject of a further test is Enterobacter sp. 523. The test is described as above. The test is classed as cell-based. The settings on record: read-out: Minimum Inhibitory Concentration. The procedure:
as §1

In a further test the test system is Pseudomonas sp. 537. The test is described as above. The settings on record: read-out: Minimum Inhibitory Concentration. In kind it is cell-based. The procedure: as §1
In a further test the test system is Klebsiella sp. 498. The test is described as above. The settings on record: read-out: Minimum Inhibitory Concentration. The test is classed as cell-based. The procedure:
as §1

The next test concerns Pseudomonas sp. 556. The test is described as above. In kind it is cell-based. The note with it: read-out: Minimum Inhibitory Concentration. The procedure: as §1
For another test, the system named is Acinetobacter sp. 488. The description is as above. The note with it: read-out: Minimum Inhibitory Concentration. In kind it is cell-based. The procedure: as §1
The subject of another test is Escherichia coli 592. The description is as above. In kind it is cell-based. The settings on record: read-out: Minimum Inhibitory Concentration. The procedure: as §1
Test [1] has as its system skin resident bacteria isolated from acne lesions. In words: MIC, summary statements on skin resident bacteria of acne patients. In kind it is cell-based. The text has this: Moreover, as the MIC values are low and within a narrow range, the chance of future resistance generation due to sub optimal drug delivery in skin is also substantially lower.
Different skin resident bacteria were isolated from acne lesions of moderate to severe acne patients. As expected, P. acnes and S. epidermidis were two most prevalent species. Members of the skin microbiomes were of diverse nature. Most of the genus were gram positive, but few of them, like Klebsiella, were gram negative. Most of them were aerobic, but few, like P. acnes, were anaerobic in nature. […] Even if they are present in low numbers in microbiomes, they can act as reservoirs of resistance against antibiotic of choice which may in the log run affect the prognosis of GNF.

For test [2], the system named is P. aeruginosa CCARM 2204 (multi-drug resistant, quinolone susceptible). Briefly: MIC, micro broth dilution (CLSI), Table 1A. The test is classed as cell-based. The note with it: Pseudomonas aeruginosa, CCARM2204. The procedure: (§2) MIC of besifloxacin and other antibiotics molecules were determined by micro broth dilution method as per the Clinical and Laboratory Standards Institute (CLSI) guideline. MIC assay is the determinant of the inherent anti-microbial potency of a particular molecule. For preparing inoculum, bacterial strains were cultured in Brain Heart Infusion Agar (BHIA) at 37° C. for 24 hours. […] For bacterial inoculum, bacterial culture turbidity was adjusted to 0.1 OD at 600 nm in UV-Visual spectrophotometer (approximately 1.5×10^8 cells/ml) and further diluted (100 times with sterile BHI broth). Diluted bacterial suspension (100 μl) was added to each well except sterility control wells (column 12 of 96 well plate). Column 11 of 96 well plate was used as growth control and vehicle control. The plates were incubated at 37° C. for 24 h. The MIC of the test compounds were determined by observing the lowest concentration of test compound that prevented the visual bacterial growth.

Test [3] deals with P. aeruginosa ATCC 27853 (wild type). In words: MIC, micro broth dilution (CLSI), Table 1A. The test is classed as cell-based. The settings on record: Pseudomonas aeruginosa, ATCC27853. The procedure:
as §2

In test [4] the test system is A. baumannii CCARM 12001 (Quinolone resistant strain). In words: MIC, micro broth dilution (CLSI), Table 1A. The note with it: Acinetobacter baumannii, CCARM12001. In kind it is cell-based. The procedure:
as §2
For orientation: In broth dilution the organism is exposed to a series of concentrations in liquid medium.

Another test deals with P. acnes V3-1. Briefly: MIC against bacteria isolated from acne lesions, Table 2. In kind it is cell-based, Propionibacterium acnes. The note with it: Cutibacterium acnes, V31; P. acnes V3-1, isolated from acne lesions; read-out: Minimum Inhibitory Concentration. The procedure:
as §2
Different skin resident bacteria were isolated from acne lesions of moderate to severe acne patients.

Values after ≈ are worked out from the molar mass of the structure shown.

For `N[C@@H]1CCCCN(c2c(F)cc3c(=O)c(C(=O)O)cn(C4CC4)c3c2Cl)C1` [Besifloxacin], the MIC with Escherichia coli 591 is 0.125 µg/mL (≈ 0.317 µM); with Enterobacter sp. 2 it was 1 µg/mL (≈ 2.54 µM); in the test with Enterobacter sp. 532 it was 16 µg/mL (≈ 40.6 µM); in the test on Klebsiella sp. 512 it was 0.25 µg/mL (≈ 0.635 µM); in the test on Enterobacter sp. 1, 16 µg/mL (≈ 40.6 µM); in the test with Enterobacter sp. 523, 0.5 µg/mL (≈ 1.27 µM). Also, the MIC in the test on Pseudomonas sp. 537 is 1 µg/mL (≈ 2.54 µM); in the test on Klebsiella sp. 498 it was 16 µg/mL (≈ 40.6 µM); in the test with Pseudomonas sp. 556, 1 µg/mL (≈ 2.54 µM); in the test on Acinetobacter sp. 488 it was 2 µg/mL (≈ 5.08 µM); in the test with Escherichia coli 592 it was 0.5 µg/mL (≈ 1.27 µM); in test [2], 4 µg/mL (≈ 10.2 µM). In addition, the MIC in test [3] was 0.5 µg/mL (≈ 1.27 µM); in test [4], 2 µg/mL (≈ 5.08 µM); in the test on P. acnes V3-1, 0.5 µg/mL (≈ 1.27 µM). In addition, in test [1] (Table 2 isolates), the “Activity against skin resident bacteria isolated from acne lesions (in words)” value is “potent antibacterial activity”. In addition, the “isolates demonstrating resistance to besifloxacin” value in test [1] (micro broth dilution assay, acne patients or healthy individuals) is given as “none”.

These data come from patent US20210393520A1, “TREATMENT OF GRAM-NEGATIVE FOLLICULITIS OR AN INFLAMMATION THEREOF WITH BESIFLOXACIN” (VYOME THERAPEUTICS LIMITED, priority 2018, published 2021).
